According to patent US20180371044A1, “PEPTIDOMIMETIC MACROCYCLES” (Aileron Therapeutics, Inc., priority 2015, published 2018):
Where a SMILES comes first, the peptide text is derived from it. [ ]: non-standard residue; d: D form. The star is where a group is joined. NiPrTyr = CC(C)N[C@@H](Cc1ccc(O)cc1)C(=O)O; NMeY = CN[C@@H](Cc1ccc(O)cc1)C(=O)O; Nle = CCCC[C@H](N)C(=O)O; Abu = CC[C@H](N)C(=O)O; Hexanoyl = CCCCCC(=O)*; Aib = CC(C)(N)C(=O)O

These compounds were tested against T1, human GHRH receptor (hGHRHR) (Homo sapiens, UniProt Q02643) (assay: GHRHR agonism measured by cAMP (HTRF) in human 293 cells expressing hGHRHR). Details: 30 min at RT.
T1 construct: expressed in transfected cells; host or cells: Human 293 cells
T1 sequence (Q02643 23-423): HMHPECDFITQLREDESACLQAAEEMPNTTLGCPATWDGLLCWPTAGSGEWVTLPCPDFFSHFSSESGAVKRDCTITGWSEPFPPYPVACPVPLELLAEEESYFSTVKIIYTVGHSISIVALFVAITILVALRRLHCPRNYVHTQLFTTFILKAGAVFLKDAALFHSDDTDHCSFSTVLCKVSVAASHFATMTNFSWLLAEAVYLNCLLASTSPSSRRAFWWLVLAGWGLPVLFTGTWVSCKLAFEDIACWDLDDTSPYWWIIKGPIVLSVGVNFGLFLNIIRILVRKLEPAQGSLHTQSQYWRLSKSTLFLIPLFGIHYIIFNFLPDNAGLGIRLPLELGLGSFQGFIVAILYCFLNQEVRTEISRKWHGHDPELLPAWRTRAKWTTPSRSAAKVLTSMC
Assay type: cell-based
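Also: receptor expressed transiently or stably, cells stimulated in serum-free medium, EC50 from a non-linear dose-response fit, maximal response defined by reference GHRH stimulation.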

| SMILES | EC50 [nM] |
| --- | --- |
| CCCC[C@H](NC(=O)[C@@H](NC(=O)[C@H](CC(=O)O)NC(=O)[C@H](CCC(N)=O)NC(=O)[C@H](CC(C)C)NC(=O)[C@H](C)NC(=O)[C@H](CCCCN)NC(=O)[C@H](CCCNC(=N)N)NC(=O)[C@H](C)NC(=O)[C@H](CO)NC(=O)[C@H](CC(C)C)NC(=O)[C@H](CCC(N)=O)NC(=O)[C@H](C)NC(=O)[C@H](CC(C)C)NC(=O)[C@@H](NC(=O)[C@H](CCCCN)NC(=O)[C@H](CCCNC(=N)N)NC(=O)[C@H](Cc1ccc(O)cc1)NC(=O)[C@H](CO)NC(=O)[C@H](C)NC(=O)[C@@H](NC(=O)[C@H](Cc1ccccc1)NC(=O)[C@@H](NC(=O)[C@H](C)NC(=O)[C@H](CC(=O)O)NC(=O)[C@H](C)NC(=O)[C@@H](N)Cc1ccc(O)cc1)[C@@H](C)CC)[C@@H](C)O)C(C)C)[C@@H](C)CC)C(=O)N[C@@H](CO)C(=O)N[C@@H](CCCNC(=N)N)C(N)=O [SP-36] (H-YADAIFTASYRKVLAQLSARKALQDI[Nle]SR-NH2) | 1 to 10 |
| CCCC[C@H](NC(=O)[C@@H](NC(=O)[C@H](CC(=O)O)NC(=O)[C@H](CCC(N)=O)NC(=O)[C@H](CC(C)C)NC(=O)[C@H](C)NC(=O)[C@H](CCCCN)NC(=O)[C@H](CCCNC(=N)N)NC(=O)[C@H](C)NC(=O)[C@H](CO)NC(=O)[C@H](CC(C)C)NC(=O)[C@H](CCC(N)=O)NC(=O)[C@H](C)NC(=O)[C@H](CC(C)C)NC(=O)[C@@H](NC(=O)[C@H](CCCCN)NC(=O)[C@H](CCCNC(=N)N)NC(=O)[C@H](Cc1ccc(O)cc1)NC(=O)[C@H](CO)NC(=O)[C@H](C)NC(=O)[C@@H](NC(=O)[C@H](Cc1ccccc1)NC(=O)[C@@H](NC(=O)[C@H](C)NC(=O)[C@H](CC(=O)O)NC(=O)[C@H](C)NC(=O)[C@H](Cc1ccc(O)cc1)NC(C)C)[C@@H](C)CC)[C@@H](C)O)C(C)C)[C@@H](C)CC)C(=O)N[C@@H](CO)C(=O)N[C@@H](CCCNC(=N)N)C(N)=O [SP-37] (H-[NiPrTyr]ADAIFTASYRKVLAQLSARKALQDI[Nle]SR-NH2) | 1 to 10 |
| CCCCCC(=O)N[C@@H](Cc1ccc(O)cc1)C(=O)N[C@@H](C)C(=O)N[C@@H](CC(=O)O)C(=O)N[C@@H](C)C(=O)N[C@H](C(=O)N[C@@H](Cc1ccccc1)C(=O)N[C@H](C(=O)N[C@@H](C)C(=O)N[C@@H](CO)C(=O)N[C@@H](Cc1ccc(O)cc1)C(=O)N[C@@H](CCCNC(=N)N)C(=O)N[C@@H](CCCCN)C(=O)N[C@H](C(=O)N[C@@H](CC(C)C)C(=O)N[C@@H](C)C(=O)N[C@@H](CCC(N)=O)C(=O)N[C@@H](CC(C)C)C(=O)N[C@@H](CO)C(=O)N[C@@H](C)C(=O)N[C@@H](CCCNC(=N)N)C(=O)N[C@@H](CCCCN)C(=O)N[C@@H](C)C(=O)N[C@@H](CC(C)C)C(=O)N[C@@H](CCC(N)=O)C(=O)N[C@@H](CC(=O)O)C(=O)N[C@H](C(=O)N[C@@H](CCCC)C(=O)N[C@@H](CO)C(=O)N[C@@H](CCCNC(=N)N)C(N)=O)[C@@H](C)CC)C(C)C)[C@@H](C)O)[C@@H](C)CC [SP-39] (Hexanoyl-YADAIFTASYRKVLAQLSARKALQDI[Nle]SR-NH2) | 1 to 10 |
| CCCC[C@H](NC(=O)[C@@H](NC(=O)[C@H](CC(=O)O)NC(=O)[C@H](CCC(N)=O)NC(=O)[C@H](CC(C)C)NC(=O)[C@H](C)NC(=O)[C@H](CCCCN)NC(=O)[C@H](CCCNC(=N)N)NC(=O)[C@H](C)NC(=O)[C@H](CO)NC(=O)[C@H](CC(C)C)NC(=O)[C@H](CCC(N)=O)NC(=O)[C@H](C)NC(=O)[C@H](CC(C)C)NC(=O)[C@@H](NC(=O)[C@H](CCCCN)NC(=O)[C@H](CCCNC(=N)N)NC(=O)[C@H](Cc1ccc(O)cc1)NC(=O)[C@H](CO)NC(=O)[C@H](C)NC(=O)[C@@H](NC(=O)[C@H](Cc1ccccc1)NC(=O)[C@@H](NC(=O)[C@H](C)NC(=O)[C@H](CC(=O)O)NC(=O)[C@H](C)NC(=O)[C@H](Cc1ccc(O)cc1)NC(C)=O)[C@@H](C)CC)[C@@H](C)O)C(C)C)[C@@H](C)CC)C(=O)N[C@@H](CO)C(=O)N[C@@H](CCCNC(=N)N)C(N)=O [SP-40] (Ac-YADAIFTASYRKVLAQLSARKALQDI[Nle]SR-NH2) | 1 to 10 |
| CCCC[C@H](NC(=O)[C@@H](NC(=O)[C@H](CC(=O)O)NC(=O)[C@H](CCC(N)=O)NC(=O)[C@H](CC(C)C)NC(=O)[C@H](C)NC(=O)[C@H](CCCCN)NC(=O)[C@H](CCCNC(=N)N)NC(=O)[C@H](C)NC(=O)[C@H](CO)NC(=O)[C@H](CC(C)C)NC(=O)[C@H](CCC(N)=O)NC(=O)[C@H](C)NC(=O)[C@H](CC(C)C)NC(=O)[C@@H](NC(=O)[C@H](CCCCN)NC(=O)[C@H](CCCNC(=N)N)NC(=O)[C@H](Cc1ccc(O)cc1)NC(=O)[C@H](CO)NC(=O)[C@@H](NC(=O)[C@@H](NC(=O)[C@H](Cc1ccccc1)NC(=O)[C@@H](NC(=O)[C@H](C)NC(=O)[C@H](CC(=O)O)NC(=O)[C@H](C)NC(=O)[C@H](Cc1ccc(O)cc1)NC)[C@@H](C)CC)[C@@H](C)O)[C@@H](C)O)C(C)C)[C@@H](C)CC)C(=O)N[C@@H](CO)C(=O)N[C@@H](CCCNC(=N)N)C(N)=O [SP-42] (H-[NMeY]ADAIFTTSYRKVLAQLSARKALQDI[Nle]SR-NH2) | 1 to 10 |
| CCCC[C@H](NC(=O)[C@@H](NC(=O)[C@H](CC(=O)O)NC(=O)[C@H](CCC(N)=O)NC(=O)[C@H](CC(C)C)NC(=O)[C@H](C)NC(=O)[C@H](CCCCN)NC(=O)[C@H](CCCNC(=N)N)NC(=O)[C@H](C)NC(=O)[C@H](CO)NC(=O)[C@H](CC(C)C)NC(=O)[C@H](CCC(N)=O)NC(=O)[C@H](CC)NC(=O)[C@H](CC(C)C)NC(=O)[C@@H](NC(=O)[C@H](CCCCN)NC(=O)[C@H](CCCNC(=N)N)NC(=O)[C@H](Cc1ccc(O)cc1)NC(=O)[C@H](CO)NC(=O)[C@H](C)NC(=O)[C@@H](NC(=O)[C@H](Cc1ccccc1)NC(=O)[C@@H](NC(=O)[C@H](C)NC(=O)[C@H](CC(=O)O)NC(=O)[C@H](C)NC(=O)[C@H](Cc1ccc(O)cc1)NC)[C@@H](C)CC)[C@@H](C)O)C(C)C)[C@@H](C)CC)C(=O)N[C@@H](CO)C(=O)N[C@@H](CCCNC(=N)N)C(N)=O [SP-44] (H-[NMeY]ADAIFTASYRKVL[Abu]QLSARKALQDI[Nle]SR-NH2) | 1 to 10 |
| CCCC[C@H](NC(=O)[C@@H](NC(=O)[C@H](CC(=O)O)NC(=O)[C@H](CCC(N)=O)NC(=O)[C@H](CC(C)C)NC(=O)[C@H](C)NC(=O)[C@H](CCCCN)NC(=O)[C@H](CCCNC(=N)N)NC(=O)[C@H](C)NC(=O)[C@H](CO)NC(=O)[C@H](CC(C)C)NC(=O)[C@H](CCC(N)=O)NC(=O)[C@H](C)NC(=O)[C@H](CC(C)C)NC(=O)[C@@H](NC(=O)[C@H](CCCCN)NC(=O)[C@H](CCCNC(=N)N)NC(=O)[C@H](Cc1ccc(O)cc1)NC(=O)[C@H](CO)NC(=O)[C@H](C)NC(=O)[C@@H](NC(=O)[C@H](Cc1ccccc1)NC(=O)[C@@H](NC(=O)[C@H](C)NC(=O)[C@H](CC(=O)O)NC(=O)[C@H](C)NC(=O)[C@H](Cc1ccc(O)cc1)NC)[C@@H](C)CC)[C@@H](C)O)C(C)C)[C@@H](C)CC)C(=O)N[C@@H](CC(=O)O)C(=O)N[C@@H](CCCNC(=N)N)C(N)=O [SP-45] (H-[NMeY]ADAIFTASYRKVLAQLSARKALQDI[Nle]DR-NH2) | ≤ 1 |

Second part, the compound after the results:

| EC50 [nM] | SMILES |
| --- | --- |
| ≤ 1 | CCCC[C@H](NC(=O)[C@@H](NC(=O)[C@H](CC(=O)O)NC(=O)[C@H](CCC(N)=O)NC(=O)[C@H](CC(C)C)NC(=O)[C@H](C)NC(=O)[C@H](CCCCN)NC(=O)[C@H](CCCNC(=N)N)NC(=O)[C@H](C)NC(=O)[C@H](CO)NC(=O)[C@H](CC(C)C)NC(=O)[C@H](CCC(N)=O)NC(=O)[C@H](C)NC(=O)[C@H](CC(C)C)NC(=O)[C@@H](NC(=O)[C@H](CCCCN)NC(=O)[C@H](CCCNC(=N)N)NC(=O)[C@H](Cc1ccc(O)cc1)NC(=O)[C@H](CO)NC(=O)[C@H](C)NC(=O)[C@@H](NC(=O)[C@H](Cc1ccccc1)NC(=O)[C@@H](NC(=O)[C@H](C)NC(=O)[C@H](CC(=O)O)NC(=O)[C@H](C)NC(=O)[C@H](Cc1ccc(O)cc1)NC)[C@@H](C)CC)[C@@H](C)O)C(C)C)[C@@H](C)CC)C(=O)N[C@@H](CO)C(=O)N[C@@H](CCCNC(=N)N)C(N)=O [SP-35] (H-[NMeY]ADAIFTASYRKVLAQLSARKALQDI[Nle]SR-NH2) |
| ≤ 1 | CCCC[C@H](NC(=O)[C@@H](NC(=O)[C@H](CC(=O)O)NC(=O)[C@H](CCC(N)=O)NC(=O)[C@H](CC(C)C)NC(=O)[C@H](C)NC(=O)[C@H](CCCCN)NC(=O)[C@H](CCCNC(=N)N)NC(=O)[C@H](C)NC(=O)[C@H](CO)NC(=O)[C@H](CC(C)C)NC(=O)[C@H](CCC(N)=O)NC(=O)[C@H](C)NC(=O)[C@H](CC(C)C)NC(=O)[C@@H](NC(=O)[C@H](CCCCN)NC(=O)[C@H](CCCNC(=N)N)NC(=O)[C@H](Cc1ccc(O)cc1)NC(=O)[C@H](CO)NC(=O)C(C)(C)NC(=O)[C@@H](NC(=O)[C@H](Cc1ccccc1)NC(=O)[C@@H](NC(=O)[C@H](C)NC(=O)[C@H](CC(=O)O)NC(=O)[C@H](C)NC(=O)[C@H](Cc1ccc(O)cc1)NC)[C@@H](C)CC)[C@@H](C)O)C(C)C)[C@@H](C)CC)C(=O)N[C@@H](CO)C(=O)N[C@@H](CCCNC(=N)N)C(N)=O [SP-41] (H-[NMeY]ADAIFT[Aib]SYRKVLAQLSARKALQDI[Nle]SR-NH2) |
| ≤ 1 | CCCC[C@H](NC(=O)[C@@H](NC(=O)[C@H](CC(=O)O)NC(=O)[C@H](CCC(N)=O)NC(=O)[C@H](CC(C)C)NC(=O)[C@H](C)NC(=O)[C@H](CCCCN)NC(=O)[C@H](CCCNC(=N)N)NC(=O)[C@H](C)NC(=O)[C@H](CO)NC(=O)[C@H](CC(C)C)NC(=O)[C@H](CCC(N)=O)NC(=O)[C@H](C)NC(=O)[C@H](CC(C)C)NC(=O)[C@@H](NC(=O)[C@H](CCCCN)NC(=O)[C@H](CCCNC(=N)N)NC(=O)[C@H](Cc1ccc(O)cc1)NC(=O)[C@H](CO)NC(=O)[C@H](CCC(N)=O)NC(=O)[C@@H](NC(=O)[C@H](Cc1ccccc1)NC(=O)[C@@H](NC(=O)[C@H](C)NC(=O)[C@H](CC(=O)O)NC(=O)[C@H](C)NC(=O)[C@H](Cc1ccc(O)cc1)NC)[C@@H](C)CC)[C@@H](C)O)C(C)C)[C@@H](C)CC)C(=O)N[C@@H](CO)C(=O)N[C@@H](CCCNC(=N)N)C(N)=O [SP-43] (H-[NMeY]ADAIFTQSYRKVLAQLSARKALQDI[Nle]SR-NH2) |
